The values that follow come from patent US6953813B1, “2-Aminotetralin derivatives for the therapy of glaucoma” (Chiesi Farmaceutici S.p.A., priority 1999, dated 2005).

For data set [1] the following is noted: in vivo; cited from earlier work.
For another data set, the system named is rabbit. The following applies: cited from earlier work; for effect on intraocular pressure: ophthalmic drops.
Data set [2] has as its system normotensive Dutch Belted rabbits. Nature of the data set: Intraocular pressure (IOP) after single dose in normotensive rabbits. The format is in vivo, rabbit. The following applies: 0.2% w/v. How it is done:
Water (pH 4.5, made isotonic with sodium chloride), was selected as vehicle for the IOP-studies.
Five concentrations (0.01, 0.05, 0.2, 0.5 and 1.0% w/v) of CHF 1035 were studied. Brimonidine (0.2% w/v) was used as a positive, and vehicle (water pH 4.5) as a negative control.
The experimental animals used were normotensive Dutch Belted rabbits of either gender (n=6). A single drop (25 μl) of the test solution was instilled unilaterally into the left eye (treated eye). IOP of the rabbits (treated and untreated eyes) was measured at 1 and 0 h before, and at 0.5, 1, 2, 3, 4, 5, 6 and 7 h after topical eyedrop administration. IOP at the time of eyedrop administration (0 h) was used as a baseline value. IOP was measured using a BioRad Pneumatonometer. More detailed description of the IOP measurement procedure can be found in Pharm. Res. 14, 1738-1743, 1997 and Curr. Eye Res. 14, 791-797, 1995. All the studies were set up using a randomized crossover design. At least 72 h of wash-out time was allowed for each rabbit between dosings. The irritation caused by an instilled eyedrop were evaluated by recording the extent of eyelid closure after topical eyedrop administration.

For the compound `CCCN(CCc1cccs1)C1CCc2c(O)cccc2C1` (stereo not drawn) [2-(N-propyl-N-2-thienylethylamino)-5-hydroxytetralin], the ocular side effects result in data set [1] is listed as “can also induce eye irritation”.
Regarding `CN(C)C1CCc2c(ccc(O)c2O)C1` (stereo not drawn) [M-7, N,N-dimethyl-5,6-dihydroxy-2-aminotetralin], the “concentration inducing eye irritation” value in the data set with rabbit (in vivo) is recorded as 0.1%. Besides, the “effect on intraocular pressure” value with rabbit was “active as well in reducing intraocular pressure”.
For `NC1CCc2cc(O)c(O)cc2C1` (stereo not drawn) [6,7-dihydroxy-2-aminotetralin], the “effect on intraocular pressure” value in the data set on rabbit is recorded as “gives rise to eye hypotension in the rabbit”.
As to `CN(C)C1CCc2cc(O)c(O)cc2C1` (stereo not drawn) [N,N-dimethyl-6,7-dihydroxy-2-aminotetralin], the “effect on intraocular pressure” value with rabbit is “gives rise to eye hypotension in the rabbit”.
As to `CNCC(O)c1ccc(OC(=O)C(C)(C)C)c(OC(=O)C(C)(C)C)c1` (stereo not drawn) [Dipivefrin], the ocular side effects result in data set [1] was “pain in the eye and in the superciliary arch as well as corneal vascularization and opacification during long-term use”.
Turning to `Brc1c(NC2=NCCN2)ccc2nccnc12` [Brimonidine, reference compound], the “IOP changes (mean ± SEM) in the treated eye” value in data set [2] (0 min) is given as 0.0 ± 0.0 mmHg; in data set [2] (30 min), −2.7 ± 0.9 mmHg; in data set [2] (60 min), −7.8 ± 0.9 mmHg; in data set [2] (120 min) it was −6.2 ± 1.4 mmHg; in data set [2] (180 min) it was −3.9 ± 0.8 mmHg; in data set [2] (240 min), −3.4 ± 0.7 mmHg. For the same compound, the “IOP changes (mean ± SEM) in the treated eye” value in data set [2] (300 min) is listed as −2.4 ± 0.7 mmHg; in data set [2] (360 min) it was −0.4 ± 0.6 mmHg; in data set [2] (420 min), 0.2 ± 0.3 mmHg. In addition, the “IOP changes (mean ± SEM) in the untreated eye” value is 0.0 ± 0.0 mmHg in data set [2] (0 min); −3.2 ± 1.2 mmHg in data set [2] (30 min); −8.7 ± 0.8 mmHg in data set [2] (60 min); −3.3 ± 1.3 mmHg in data set [2] (120 min); −1.7 ± 0.9 mmHg in data set [2] (180 min); −2.1 ± 1.0 mmHg in data set [2] (240 min). In addition, the “IOP changes (mean ± SEM) in the untreated eye” value in data set [2] (300 min) is reported as −0.6 ± 0.9 mmHg; in data set [2] (360 min), 0.1 ± 0.6 mmHg; in data set [2] (420 min) it was 0.0 ± 0.6 mmHg.
